Results reported in publication PMC3972617 (Xenobiotica; the fate of foreign compounds in biological …, 2013).

Legend:
[1] = test system: primary mouse hepatocytes; assay: LDH release cytotoxicity in cultured primary mouse hepatocytes; format: cell-based; settings: 24 h exposure
[2] = test system: indomethacin-induced small intestinal injury; assay: Indomethacin-induced enteropathy in mice
[3] = test system: ketoprofen-induced small intestinal injury; assay: Ketoprofen-induced enteropathy in mice; format: in vivo, male C57BL/6J mice; settings: Inh-1 10 μg/mouse po bid for 2 days before ketoprofen 100 mg/kg ip; 18 h
[4] = test system: diclofenac (DCF)-induced small intestinal injury; assay: Diclofenac-induced enteropathy in mice; format: in vivo, male C57BL/6J mice
[5] = test system: diclofenac (DCF)-induced small intestinal injury; settings: Inh-1 given prior to DCF (60 mg/kg, ip); ref LoGuidice et al., 2012; cited from earlier work
[6] = Pharmacokinetic profiling of Inhibitor-1 in mice; format: in vivo; settings: for AUC(0-t): AUC0–24 h
[7] = single oral dose Inh-1 10 μg/mouse 3 h after DCF 60 mg/kg ip, 18 h after DCF
[8] = C57BL/6J, mouse, plasma, iv, 3 mg/kg, Inh-1 3 mg/kg iv, vehicle pretreatment
[9] = C57BL/6J, mouse, plasma, po, 3 mg/kg, Inh-1 3 mg/kg po, vehicle pretreatment

O=C(O)Cc1ccccc1Nc1c(Cl)cccc1Cl [DCF, diclofenac, reference compound]
LDH release from the cells ([1]; DCF 1000 μM): significant increases in LDH release

COc1ccc2c(c1)c(CC(=O)O)c(C)n2C(=O)c1ccc(Cl)cc1 [indomethacin, Indomethacin, reference compound]
small intestinal mucosal ulceration ([2]; single dose of indomethacin alone 10 mg/kg ip, 18 h, majority of lesions in quartiles 2 and 3): marked mucosal ulceration

CCOc1ccc(NC(=S)N(CCO)Cc2cc3cc(C)cc(C)c3[nH]c2=O)cc1 [Inh-1, 1-((6,8-dimethyl-2-oxo-1,2-dihydroquinolin-3-yl)methyl)-3-(4-ethoxyphenyl)-1-(2-hydroxyethyl)thiourea]
decrease of total area of indomethacin-induced intestinal injury ([2]; Inh-1 10 μg/mouse po bid for 2 days, last dose 1 h before indomethacin 10 mg/kg ip, 18 h post-dose): 89% | NBT staining of jejunal mucosa (oxidoreductive stress) ([2]; Inh-1/indomethacin co-treated mice, 1 mM nitroblue tetrazolium incubation): remained unstained | co-treated mice with an ulcer (one small ulcer) [3]: 1/11 | protection against DCF-induced enteropathy, post-treatment ([4]; Inh-1 administered 3-h post-DCF (60 mg/kg, ip)): partial protection | average area of total ulcers per mouse versus DCF alone [4, 7]: not significantly different | reduction of average ulcer number per mouse versus DCF controls [4, 7]: 71% | LDH release versus solvent controls ([1]; Inh-1 100 μM alone): did not significantly increase LDH release | effect on DCF concentration-toxic response curve (LDH release) ([1]; Inh-1 100 μM with DCF 500 or 1000 μM): did not alter the concentration-toxic response curve | protection against DCF-induced enteropathy, pretreatment [5]: complete protection | AUC(0-t) [6, 8]: 4380 ng·h/mL | Cmax [6, 8]: 7190 ng/mL | half-life ([6]; C57BL/6J, mouse, plasma, iv, 3 mg/kg, T1/2, Inh-1 3 mg/kg iv, vehicle pretreatment): 42 min | AUC(0-t) [6, 9]: 925 ng·h/mL | Cmax [6, 9]: 513 ng/mL | Tmax ([6]; C57BL/6J, mouse, plasma, po, 3 mg/kg, Tmax, Inh-1 3 mg/kg po, vehicle pretreatment): 30 min | time at which maximal plasma levels were attained ([6]; single oral administration of Inh-1 3 mg/kg): 30 min
